Data as given in publication PMC9138994 (Biomolecules, 2022).
Marks after values point to notes of the source that are not given here.

Columns and labels:
human 5-HT6 = biological target: T1, human 5-HT6 (Homo sapiens, UniProt P50406); test: Radioligand displacement assay at 5-HT6 ([3H]-LSD, HEK293 cells); type: binding; conditions: HEK293 cells stably expressing h5-HT6, read-out: Ki ± SD (n), 5-HT6
T1 construct: expressed in transfected cells; host or cells: HEK293
Procedure: HEK293 cells with a stable expression of human 5-HT1A, 5-HT6, 5-HT7b, and D2L (prepared with the use of Lipofectamine 2000), or CHO-K1 cells with plasmids containing the sequence coding for the human serotonin 5-HT2A receptor (PerkinElmer), were maintained at 37 °C in a humidified atmosphere with 5% CO2 and grown in Dulbecco’s Modified Eagle Medium containing 10% dialyzed fetal bovine serum and 500 µg/mL G418 sulfate. For membrane preparation, cells were subcultured in 150 cm^2 flasks, grown to 90% confluence, washed twice with prewarmed to 37 °C phosphate buffered saline (PBS) and pelleted by centrifugation (200× g) in PBS containing 0.1 mM EDTA and 1 mM dithiothreitol. Prior to membrane preparation, the pellets were stored at −80 °C.
Cell pellets were thawed and homogenized in 10 volumes of assay buffer using an Ultra Turrax tissue homogenizer, and were then centrifuged twice at 35,000× g for 15 min at 4 °C, with incubations for 15 min at 37 °C in between. […] The process of equilibration was terminated by rapid filtration through Unifilter plates with a 96-well cell harvester and the radioactivity retained on the filters was quantified on a Microbeta plate reader (PerkinElmer, Waltham, MA, USA). […] The inhibition constants (Ki) were calculated from the Cheng-Prusoff equation [38]. Results are expressed as means of two separate experiments.

C57BL/6 mice [1] = test: Forced swim test (FST); type: in vivo; conditions: for immobility time in FST: acute i.p. pretreatment, ST-2300 or PIM 5, 10, 15 mg/kg, vs saline controls, adult male C57BL/6 mice, 6 min
Procedure: (§1) Inbred adult male C57BL/6 mice (aged 10–12 weeks and weighing 20–25 g) were obtained from the animal facility in the College of Medicine and Health Sciences, United Arab Emirates University. The animals were maintained in a separate air-conditioned room with controlled temperature and humidity (24 ± 2 °C and 55 ± 15%, respectively), with a 12 h light/dark cycle, and ad libitum to food and water. All the experiments were performed between 9.00 am and 3.00 pm. The procedures were approved by the Institutional Animal Ethics Committee of College of Medicine and Health Sciences/United Arab Emirates University (Approval No. ERA-2019-6010). To reduce the suffering of the animals, a minimum number of animals were used in this study, whereas the objectives were not compromised.
(§2) These experiments provide the first behavioral assessment of the ST-2300 in anxiety-like and depression-like behaviors in mice. All doses are expressed in terms of the free base of all test compounds. The drugs used in the current study were dissolved in saline and injected i.p. at a volume of 1 mL/kg. All experimental procedures were conducted in a blinded fashion in which the experimenter was uninformed about the specific treatment groups to which an animal group belonged. Saline, ST-2300 (5, 10, and 15 mg/kg), PIM (5, 10, and 15 mg/kg), FLX (10 mg/kg), RAM (10 mg/kg), and DZP (1 mg/kg) were injected i.p. 30–45 min before the beginning of the behavioral experiments.
The FST test was performed according to previously described protocols. Mice were individually placed into glass cylinders containing 15 cm of water at ∼25 °C. The mice were left in the cylinders for 6 min and immobility was observed and analyzed. The mice were then removed from the container and left to dry in a heated enclosure before being returned to their home cages. The mice were considered to be immobile when they ceased struggling and remained floating motionless in the water (without any vertical or horizontal movements), making only the movements necessary to keep their heads above the water level as described previously.

H1R = test system: H1R; parameters: method as in earlier work; conditions: ref 19 (Vanover et al.); cited from earlier work
C57BL/6 mice [2] = test: Tail suspension test (TST); type: in vivo; conditions: for immobility time in TST: acute i.p. pretreatment, ST-2300 10 or 15 mg/kg, PIM 5–15 mg/kg, FLX 10 mg/kg, vs saline controls, C57BL/6 mice, 6 min
Procedure: as §1, §2
This experimental protocol was followed as previously described, however with slight modifications. Each mouse was suspended on the edge of a rod 50 cm above a table top using adhesive Scotch tape placed approximately 1 cm from the tip of the tail. Tail climbing was prevented by passing the mouse’s tail through a small plastic cylinder prior to suspension, as described by Can et al.. The duration of immobility was manually scored for a 6 min observation period. Mice were considered immobile only when they hung down passively and were completely motionless. The parameter recorded was the number of seconds spent immobile.

[3] = ST-2300 10 mg/kg i.p. co-administered with H3R agonist RAM 10 mg/kg i.p., vs ST-2300 alone

T1 sequence (P50406 whole entry): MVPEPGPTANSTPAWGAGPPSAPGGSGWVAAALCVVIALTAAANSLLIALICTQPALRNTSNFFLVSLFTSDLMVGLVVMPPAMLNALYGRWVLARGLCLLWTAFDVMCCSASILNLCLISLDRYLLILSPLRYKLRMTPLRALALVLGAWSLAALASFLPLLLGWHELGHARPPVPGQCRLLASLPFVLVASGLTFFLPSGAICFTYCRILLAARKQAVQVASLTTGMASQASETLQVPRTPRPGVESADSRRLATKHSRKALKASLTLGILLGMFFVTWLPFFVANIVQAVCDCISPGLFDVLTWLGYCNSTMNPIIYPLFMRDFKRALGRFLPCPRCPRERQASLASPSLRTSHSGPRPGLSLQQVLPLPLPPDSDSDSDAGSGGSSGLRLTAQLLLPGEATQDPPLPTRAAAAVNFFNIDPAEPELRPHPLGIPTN

| SMILES | Ki (human 5-HT6) [nM] | immobility time in FST (C57BL/6 mice [1]) | inhibition at 10 µM, H1R (H1R) | immobility time in TST (C57BL/6 mice [2]) | immobility time in FST, co-administration of RAM (C57BL/6 mice [1]; [3]) | immobility time in TST, co-administration of RAM (C57BL/6 mice [2]; [3]) |
| --- | --- | --- | --- | --- | --- | --- |
| CC(C)COc1ccc(CNC(=O)N(Cc2ccc(F)cc2)C2CCN(C)CC2)cc1 [Pimavanserin, reference compound] | 59 ± 11 | significant and dose-dependent decrease of immobility time | inhibition at 10 µM: <50% ^a | failed to affect the overall immobility time |  |  |
| CN1CCC(N(Cc2ccc(F)cc2)C(=O)NCc2ccc(OCCCN3CCCCC3)cc2)CC1 [ST-2300, 1-(4-Fluorobenzyl)-1-(1-methylpiperidin-4-yl)-3-{4-[3-(piperidin-1-yl)propoxy]benzyl}urea] | > 10000 | significant and dose-dependent decrease of immobility time |  | significantly reduced the immobility time | significant increase of immobility time | reversed by systemic co-administration with the CNS-penetrant H3R agonist RAM |
